From patent US7504231B2, “Method of alleviating chronic pain via peripheral inhibition of neurotransmitter synthesis” (The Board of Regents of the University of Oklahoma, priority 2001, dated 2009)
“Also recorded” adds a separate entry of the source.

Experiments:
[1] = system: CFA induced inflammation of the rat hindpaw (mechanical allodynia); assay: Pressure sensitivity with von Frey hairs (paw pressure withdrawal threshold) in rats with CFA hindpaw inflammation; assay type: in vivo; conditions: for pressure responses after intrathecal inhibitor: injected intrathecally prior to initiation of CFA inflammation, tested 4 days, before ~70 gms, CFA ~10 gms
[2] = system: CFA induced inflammation of the rat hindpaw (thermal hyperalgesia); assay: Thermal latencies (Hargreaves' model) in rats with CFA hindpaw inflammation; assay type: in vivo
Procedure: (§1) For the experiments described in FIGS. 1-16, adult Sprague Dawley male rats, 200-300 g, were used. One set of normal rats was used to evaluate the effects of fixation on glutaminase immunohistochemical staining and for determining antisera dilutions. For all other rats, at day 0, a limited arthritis was induced in the right hindpaw by the intraplantar subcutaneous injection of 75-150 μl of complete Freund's adjuvant (CFA; Mycobacterium butyricum; Sigma) emulsified in saline (1:1). Controls were naive rats that received no injection or rats that received intraplantar injection of saline (75 μl). For peripheral glutaminase inhibition studies, the inflamed hindpaws were injected with glutaminase inhibitors (25 μl) at day 3 of inflammation. Some rats with inflammation received saline injections (25 μl) into the inflamed hindpaw at day 3. […] Efforts were made to minimize the number of animals used for this study.
Thermal latencies for the footpad plantar surface were determined with the Hargreaves' model (Ugo Basile, Italy). Rats were placed on an elevated glass plate (3 mm) in clear plastic boxes with air holes in the lids and allowed to acclimate for 10 minutes. Radiant heat was applied to the plantar surface of the hindpaw and the withdrawal latency recorded. A second test was followed after 5-10 minutes. All behavioral testing occurred at 21-22° C. with indirect lighting in the testing room. Differences between groups for pressure thresholds and thermal latencies were determined with a Student's t test (p<0.05 for significance) using InStat biological statistics program (GraphPad Software, Inc., San Diego).

[3] = system: CFA induced inflammation of the rat hindpaw (mechanical allodynia); assay: Pressure sensitivity with von Frey hairs (paw pressure withdrawal threshold) in rats with CFA hindpaw inflammation; assay type: in vivo; conditions: for Paw pressure withdrawal thresholds (PPWT): CFA+saline 5-12 g, control 50-70 g
Procedure: as §1
Two to three days prior to and for the days following CFA injection, rats were tested for pressure sensitivity with von Frey hairs (Semmes-Weinstein monofilaments; Stoelting, Inc.). […] Monofilaments calibrated for specific forces were inserted through the holes underneath the box to probe the plantar surface of the hindpaw, 5 times in 3-4 sec intervals in different places on the plantar surface. Filaments with light force were used first, followed by filaments of increasing force. A filament was slowly applied perpendicularly to the plantar surface until bending of the filament occurred. […] The threshold force was defined as the filament (force) that caused the foot retraction without bending the monofilament three out of five times. Using a conversion table for the filaments, thresholds were reported as gram force.

[4] = system: GLU-IR fibers in the paw skin; assay: Glutamate immunohistochemistry of hindpaw skin after CFA inflammation; assay type: in vivo, rat; conditions: CFA + inhibitor, skin after 7 days; control very little, CFA+saline many intense fibers
Procedure: (§2) The skin from the hindpaws were also processed for GLU and GT immunohistochemistry after 7 days (FIG. 12). Control rats had very little GLU or GT-immunoreactive (IR) fibers in the paw skin. Skin from CFA+saline rats contained many intense GLU-IR and GT-IR fibers.
(§3) For immunohistochemical localization of GT, rats at 3, 7, and 10 days (n=6 CFA/time pt; n=4 control/time pt; n=3 additional controls) were anesthetized with sodium pentobarbital (90 mg/kg) and transcardially perfused with fixative: 0.2% paraformaldehyde (PFA), […] (PA) in 0.1M phosphate buffer, pH 7.4 [Miller et al, 1993, 2002]. Right and left L4DRG's and hindpaws were removed and placed overnight in fixative at 4° C.; the PFA concentration was increased to 2% for post-fixation [Miller et al, 1993, 2002]. Additional control rats (n=3) were perfused transcardially with 4% PFA in 0.1M Sorenson's phosphate buffer, pH 7.4. DRG's were removed and placed in fixative overnight at 4° C. All tissues were transferred to 20% sucrose in 0.1M Sorenson's phosphate buffer, pH 7.4 for 24-96 hr. at 4° C. The tissue was frozen, sectioned at 20 μm in a cryostat, thaw mounted onto gelatin coated slides, and dried for 1 hr. at 37° C. […]

[5] = system: GT-IR fibers in the paw skin; assay: Glutaminase immunohistochemistry of hindpaw skin after CFA inflammation; assay type: in vivo, rat; conditions: CFA + inhibitor, skin after 7 days; control very little, CFA+saline many intense fibers
Procedure: as §2, §3

hindpaw of normal rats = assay: DON controls: pressure and thermal sensitivities after intraplantar injection in normal rats; assay type: in vivo, rat; conditions: DON 10 μMole/25 μl injected on day 3, no inflammation
Procedure: FIG. 10 illustrates DON controls.
Two to three days prior to and for the days following CFA injection, rats were tested for pressure sensitivity with von Frey hairs (Semmes-Weinstein monofilaments; Stoelting, Inc.). Rats were allowed to acclimate for five to ten minutes in a plastic box (25×25×25 cm) with 6 mm holes spaced every 6 mm [Pitcher et al, 1999a,b]. Monofilaments calibrated for specific forces were inserted through the holes underneath the box to probe the plantar surface of the hindpaw, 5 times in 3-4 sec intervals in different places on the plantar surface. Filaments with light force were used first, followed by filaments of increasing force. A filament was slowly applied perpendicularly to the plantar surface until bending of the filament occurred. […] The threshold force was defined as the filament (force) that caused the foot retraction without bending the monofilament three out of five times. […]
Thermal latencies for the footpad plantar surface were determined with the Hargreaves' model (Ugo Basile, Italy). […] Radiant heat was applied to the plantar surface of the hindpaw and the withdrawal latency recorded. […] Differences between groups for pressure thresholds and thermal latencies were determined with a Student's t test (p<0.05 for significance) using InStat biological statistics program (GraphPad Software, Inc., San Diego).

[6] = P-CoA 2 mM/25 μl at day three following CFA inflammation
[7] = NEM 10 mM/25 μl at day three following CFA inflammation
[8] = BB 200 μM/25 μl at day three following CFA inflammation

Question: What does the source list for `O=c1oc2ccccc2c(O)c1Cc1c(O)c2ccccc2oc1=O` [DC, dicoumarol]?
Answer: pressure responses (allodynia) as inflammation progressed ([1]; dicoumarol 15 μl @ 500 μM i.t. on days 0, 1 and 2, CFA at Day 0, data not shown): less hyperalgesic and allodynic; Thermal latencies (hyperalgesia) as inflammation progressed ([2]; dicoumarol 15 μl @ 500 μM i.t. on days 0, 1 and 2, CFA at Day 0): less hyperalgesic

Question: How did the “long term pain relief to pressure (mechanical stimulation)” value (shortened to “long term pain relief to pressure”) [3, 6] turn out when `CCCCCCCCCCCCCCCC(=O)SCCNC(=O)CCNC(=O)[C@H](O)C(C)(C)COP(=O)(O)OP(=O)(O)OC[C@H]1O[C@@H](n2cnc3c(N)ncnc32)[C@H](O)[C@@H]1OP(=O)(O)O` [P-CoA, Palmitoyl Coenzyme A] was run?
Answer: pain relief from Days 4-7

Question: What about the “long term pain relief to heat (thermal stimulation)” value (“long term pain relief to heat” for short) [2, 6] of the same molecule?
Answer: pain relief to near normal levels from Days 4-7

Question: Which “GLU-IR fibers in hindpaw skin” value [4] does the source give for `[N-]=[N+]=CC(=O)CC[C@H](N)C(=O)O` [DON, 6-diazo-5-oxo-L-norleucine] here?
Answer: reduced to near normal levels; also recorded: moderate numbers

Question: What about the “Paw pressure withdrawal thresholds (PPWT)” value ([3]; CFA+DON rats, 25 μl into right paw after 2-3 days, from 6 hours through the duration of the experiment) of the same molecule?
Answer: 20 to 30 g

Question: And the “dose response for pain relief from pressure, area under the curve Day 3 to Day 5” value ([3]; DON 0.1-10 μMole/25 μl)?
Answer: No differences in the amount of pain relief

Question: What about the “long term pain relief to pressure” value ([3]; DON 0.1-10 μMole/25 μl, three doses, at day three following CFA inflammation) of the same molecule?
Answer: pain relief occurred for several days

Question: And the “pressure responses after intrathecal inhibitor” value [1]?
Answer: near normal pressure responses for several days

Question: And the “GT-IR fibers in hindpaw skin” value [5]?
Answer: moderate numbers

Question: And the “pressure sensitivity in normal rats” value (hindpaw of normal rats)?
Answer: same as saline controls

Question: What about the “thermal sensitivity in normal rats” value (hindpaw of normal rats) of the same molecule?
Answer: same as saline controls

Question: And the “dose response for pain relief from thermal stimulation, area under the curve Day 3 to Day 5” value ([2]; DON 0.1-10 μMole/25 μl)?
Answer: most efficacious at the higher doses

Question: And the “long term pain relief to heat” value ([2]; DON 0.1-10 μMole/25 μl, all three doses, at day 3 after CFA inflammation)?
Answer: pain relief occurred for several days

Question: And the “pain relief to heat (thermal responses)” value ([2]; DON 0.1 and 1 μMole at day 3 after CFA inflammation)?
Answer: pain relief to near normal levels for at least one day

Question: What about the “pain relief to heat (thermal responses)” value ([2]; DON 10 μMole at day 3 after CFA inflammation) of the same molecule?
Answer: bringing thermal responses back to normal for two days

Question: Which results are given for `CCN1C(=O)C=CC1=O` [NEM, N-ethylmaleimide]?
Answer: GLU-IR fibers in hindpaw skin [4]: reduced to near normal levels; also recorded: moderate numbers; Paw pressure withdrawal thresholds (PPWT) ([3]; CFA+NEM rats, after 48 hours): 20 to 25 g; long term pain relief to pressure (mechanical stimulation) [3, 7]: pain relief occurred for several days; GT-IR fibers in hindpaw skin [5]: moderate numbers; long term pain relief to heat (thermal stimulation) [2, 7]: pain relief occurred to near normal levels at days four and six

Question: What does the source list for `CS(=N)(=O)CC[C@H](N)C(=O)O` (stereo partly drawn) [MSO, methionine sulfoximine]?
Answer: pressure responses ([3]; MSO injected into inflamed hindpaw at Day 3, one-time, over several days, before inflammation ~70 gms, after ~10 gms): ~50 gms; pressure responses after intrathecal inhibitor [1]: near normal pressure responses for several days; Thermal responses ([2]; MSO injected into inflamed hindpaw at Day 3, one-time, before inflammation ~9 sec, after ~3 sec): near normal levels by day 6 through day 9

Question: For `Cc1c(C2(c3cc(C(C)C)c(O)c(Br)c3C)OS(=O)(=O)c3ccccc32)cc(C(C)C)c(O)c1Br` [BB, bromothymol blue], which “long term pain relief to pressure” value [3, 8] is on record?
Answer: pain relief on Day 5

Question: What about the “long term pain relief to heat” value [2, 8] of the same molecule?
Answer: pain relief from Days 5-7 and at near normal levels from Days 6 and 7

Question: With `O=C(O)CF` [FA, fluoroacetate] as the molecule, how does the “pressure responses after intrathecal inhibitor” value [1] read?
Answer: near normal pressure responses for several days
